Measured values taken from patent US6632621B1, “G protein-coupled receptor-like receptors and modulators thereof” (priority 1999, dated 2003).
Read-outs that look alike come from different tables or passages of the source. Where no end group is shown, it is not given here.

Experiments:
CEGPCR5 [1] = target: T1, CEGPCR5 (Caenorhabditis elegans, UniProt Q18179); assay: [35S]GTPγS binding assay, CEGPCR5 expressed in CHO cells; type: biochemical, C. elegans; conditions: membranes from cells transfected and maintained at 37° C.
T1 sequence (Q18179 1-402): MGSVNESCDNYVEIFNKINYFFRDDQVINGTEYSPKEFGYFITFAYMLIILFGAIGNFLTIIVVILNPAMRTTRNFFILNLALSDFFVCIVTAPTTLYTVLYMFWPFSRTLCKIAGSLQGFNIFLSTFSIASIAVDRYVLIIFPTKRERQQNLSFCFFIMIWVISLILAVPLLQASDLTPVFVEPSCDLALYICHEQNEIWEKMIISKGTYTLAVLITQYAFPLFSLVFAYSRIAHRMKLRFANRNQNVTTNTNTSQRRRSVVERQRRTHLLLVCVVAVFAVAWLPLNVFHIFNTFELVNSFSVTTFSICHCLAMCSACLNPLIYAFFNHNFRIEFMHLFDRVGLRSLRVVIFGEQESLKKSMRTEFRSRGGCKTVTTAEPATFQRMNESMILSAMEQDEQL

CEGPCR7 receptor = target: T2, CEGPCR7 receptor (Caenorhabditis elegans, UniProt Q18534); assay: [35S]GTPγS binding assay, membranes of CHO cells transfected with CEGPCR7; type: biochemical, C. elegans
T2 construct: Each of the 22 putative GPCR-like receptor clones appeared to contain a full-length coding region; expressed in transfected cells; host or cells: CHO-K1, transient, pCR3.1 clone, 37 to 28 C temperature shift
T2 sequence (Q18534 1-457): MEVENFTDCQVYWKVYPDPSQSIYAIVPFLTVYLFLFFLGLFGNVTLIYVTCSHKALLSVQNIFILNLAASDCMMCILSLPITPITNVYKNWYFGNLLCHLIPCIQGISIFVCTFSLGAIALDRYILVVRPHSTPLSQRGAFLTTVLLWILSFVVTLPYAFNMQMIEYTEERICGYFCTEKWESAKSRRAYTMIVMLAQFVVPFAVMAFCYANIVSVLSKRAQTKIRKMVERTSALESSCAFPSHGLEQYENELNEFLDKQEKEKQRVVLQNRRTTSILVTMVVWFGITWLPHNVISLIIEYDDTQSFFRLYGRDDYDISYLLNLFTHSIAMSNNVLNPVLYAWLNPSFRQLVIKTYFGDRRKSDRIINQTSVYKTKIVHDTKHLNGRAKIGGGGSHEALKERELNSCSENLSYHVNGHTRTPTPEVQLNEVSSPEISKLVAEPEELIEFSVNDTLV
Description: (§1) Recombinant pCR3.1 clones encoding invertebrate GPCR-like receptors were transformed into wild-type CHO-K1 cells and functional expression was achieved using a temperature-shift incubation protocol. The CHO-K1 cells were cultured at 37° C. in a humidified atmosphere of 5% CO2 in air in DMEM medium supplemented with 10% heat-inactivated fetal bovine serum (i.e., FBS), 10 μg/ml gentamicin, and 0.1 mM nonessential amino acids to give complete DMEM medium. Additionally, for incubations at temperatures lower than 37° C., the medium was fortified with 10 mM HEPES (pH 7.4). Cells were transfected with recombinant pCR3.1 clones containing GPCR-like receptor DNAs, using LipofectAMINE PLUS™, essentially according to the manufacturer's instructions. […] In separate plastic tubes, PLUS (20 μl/plate; Life Technologies) was added to 0.75 ml/plate of recombinant plasmid DNA in OptiMEM (5 μg/plate; Gibco/BRL—Life Technologies), mixed and incubated at room temperature for 15 minutes. Separately, LipofectAMINE (30 μl/plate) was mixed with 0.75 ml OptiMEM and added to the pre-complexed DNA/PLUS mixture and incubated at room temperature for 15 minutes. The culture medium was then replaced with serum-free transfection medium (DMEM, 5 ml/plate). The DNA-PLUS-LipofectAMINE complex was then added to the plates (1.5 ml/plate) and mixed gently into the medium, followed by a 3 hour incubation at 37° C. in 5% CO2. At this time, the medium was supplemented with complete DMEM medium containing 20% FBS (6.5 ml/plate) and incubation was continued at 37° C. in 5% CO2. After a total of 24 hours at 37° C. in 5% CO2, the medium was replaced with complete DMEM medium fortified with 10 mM HEPES (10 ml/plate) and the cells were moved to an incubator maintained at 28-30° C. in a humidified atmosphere of 5% CO2 in air. The incubation continued for an additional 24 hours, typically at the lower temperature indicated above. A plasmid encoding Green Fluorescent Protein (i.e., GFP, 4 μg/plate) was used for transient GFP expression in CHO-K1 cells to estimate the transfection yields under the same conditions as used for GPCR-like receptor polynucleotides.
(§2) To assess expression, membranes were prepared from transfected CHO-K1 cells. Transfected cells were washed once with ice-cold Dulbecco's phosphate-buffered saline (i.e., PBS), 5 ml per 10 cm plate, and the cells were scraped into 5 ml of the same buffer. Cell suspensions from multiple plates were combined and centrifuged at 500×g for 10 minutes at 4° C. The cell pellet was reconstituted in ice-cold TEE (25 mM Tris, pH 7.4, 5 mM EGTA, 5 mM EDTA). Convenient aliquots were snap-frozen in liquid nitrogen and stored at −70° C. After thawing, the cells were homogenized and centrifuged at 500×g for 5 minutes at 4° C. to pellet nuclei and unbroken cells. Tile supernatant was centrifuged at 47,000×g for 30 minutes at 4° C. The membrane pellet was washed once with TEE, resuspended in 20 mM HEPES, pH 7.4, 100 mM NaCl, 10 mM MgCl2, 1 mM EDTA (assay buffer), distributed into aliquots of 0.5-1.0 ml, and frozen in liquid nitrogen. Membrane aliquots were stored at −70° C. Membrane protein concentration was determined using the BCA Protein Assay Reagent from Pierce (Rockford, Ill.), with bovine serum albumin (i.e., BSA) as a standard.
Aliquots of cell membranes prepared as described above and stored at −70° C. were thawed, homogenized, and diluted into buffer containing 20 mM HEPES, pH 7.4, 10 mM MgCl2, 1 mM EDTA, and 100 mM NaCl at a concentration of 10-50 μg/ml.

CEGPCR12h receptor = target: T3, CEGPCR12h receptor (Caenorhabditis elegans, UniProt Q20275); assay: [35S]GTPγS binding assay, CEGPCR12h expressed in CHO cells; type: biochemical, C. elegans; conditions: Table 11; peptides tested at 5 μM
T3 sequence (Q20275 1-402): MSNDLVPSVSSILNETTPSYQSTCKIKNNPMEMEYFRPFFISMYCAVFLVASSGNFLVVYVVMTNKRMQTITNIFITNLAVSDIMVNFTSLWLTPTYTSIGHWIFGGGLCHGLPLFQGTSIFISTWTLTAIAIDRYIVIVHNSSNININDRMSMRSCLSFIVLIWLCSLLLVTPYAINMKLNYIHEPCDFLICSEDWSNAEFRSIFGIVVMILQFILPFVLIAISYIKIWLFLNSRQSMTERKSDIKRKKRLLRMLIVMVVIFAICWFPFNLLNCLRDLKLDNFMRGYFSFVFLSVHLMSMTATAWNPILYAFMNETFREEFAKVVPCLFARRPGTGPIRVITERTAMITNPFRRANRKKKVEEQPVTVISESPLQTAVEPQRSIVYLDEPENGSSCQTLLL

CEGPCR5 [2] = target: T1, CEGPCR5; assay: [35S]GTPγS binding assay, CEGPCR5 expressed in CHO cells; type: biochemical, C. elegans
CEGPCR16 receptor [3] = target: T4, CEGPCR16 receptor (Caenorhabditis elegans, UniProt Q9XXU4); assay: [35S]GTPγS binding assay, CEGPCR16 expressed in CHO cells; type: biochemical, C. elegans; conditions: membranes from cells transfected and maintained at 37° C.
T4 sequence (Q9XXU4 1-365): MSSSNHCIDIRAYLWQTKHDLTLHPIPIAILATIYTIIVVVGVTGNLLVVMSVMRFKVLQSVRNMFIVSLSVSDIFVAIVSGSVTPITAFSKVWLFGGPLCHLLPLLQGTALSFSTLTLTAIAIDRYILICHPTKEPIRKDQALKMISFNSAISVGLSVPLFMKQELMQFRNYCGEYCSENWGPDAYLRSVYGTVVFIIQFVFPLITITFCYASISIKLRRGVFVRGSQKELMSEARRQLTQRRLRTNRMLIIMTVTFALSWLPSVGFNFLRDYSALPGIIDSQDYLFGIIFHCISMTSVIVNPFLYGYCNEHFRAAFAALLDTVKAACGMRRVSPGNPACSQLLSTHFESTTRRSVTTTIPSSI

CEGPCR16 receptor [4] = target: T4, CEGPCR16 receptor; assay: as above; type: biochemical, C. elegans
Description: as §1, §2
(§3) Aliquots of cell membranes prepared as described above and stored at −70° C. were thawed, homogenized, and diluted into buffer containing 20 mM HEPES, pH 7.4, 10 mM MgCl2, 1 mM EDTA, and 100 mM NaCl at a concentration of 10-50 μg/ml. Reaction mixtures were prepared in 96-well polypropylene plate, Nunc. Twenty microliters of a 10× putative modulator compound (including but not limited to potential peptide ligands) solution or a water control (20 μl), 18.2 µM GDP (0.11 ml, 10 μM final concentration), and a membrane preparation were mixed and placed on ice. The modulator/ligand-GDP-membrane mixtures were incubated for 20 minutes at room temperature on a shaking platform and then placed on ice.

human D2 receptor = human D2 receptor (Homo sapiens, UniProt P14416); conditions: 37° C. versus temperature-shift transfection protocol
Sequence of human D2 receptor (P14416 whole entry): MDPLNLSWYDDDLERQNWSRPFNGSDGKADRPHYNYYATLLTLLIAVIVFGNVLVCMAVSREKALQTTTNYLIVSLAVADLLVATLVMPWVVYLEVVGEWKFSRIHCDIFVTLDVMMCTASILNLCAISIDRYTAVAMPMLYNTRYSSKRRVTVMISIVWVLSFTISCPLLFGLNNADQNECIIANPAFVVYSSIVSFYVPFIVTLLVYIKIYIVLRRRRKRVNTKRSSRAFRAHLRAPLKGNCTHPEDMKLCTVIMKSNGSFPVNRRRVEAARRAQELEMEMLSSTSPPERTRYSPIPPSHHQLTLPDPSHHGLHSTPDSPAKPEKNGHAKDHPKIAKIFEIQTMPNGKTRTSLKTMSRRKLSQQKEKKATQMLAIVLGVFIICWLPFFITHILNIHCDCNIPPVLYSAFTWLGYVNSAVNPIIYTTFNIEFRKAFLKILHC
Description: as §3

[5] = temperature shift to 28° C. 24 hours after transfection

H-GLGPRPLRF-NH2 [GLGPRPLRF-NH2]
receptor activation by matched ligand (CEGPCR5 [1]): not detectably activated | EC50 (CEGPCR7 receptor; EC50, single values): 207 nM | EC50 (CEGPCR7 receptor; EC50 range, Table 7, one range for the group of peptides): 200 to 250 nM | ligand-induced [35S]GTPγS binding, fold elevation in activity (CEGPCR7 receptor; cooling (28° C.) protocol): 2.6 fold | activity at single concentration (CEGPCR12h receptor): active at | EC50 (CEGPCR5 [2]): 1 to 10 nM | EC50 (CEGPCR5 [2]; in words): low nanomolar range | ligand-induced [35S]GTPγS binding (CEGPCR5 [2]; [5]): significant stimulation

ASEDALFGTMRF-NH2 [ASEDALFGTMRF-NH2]
receptor activation by matched ligand (CEGPCR16 receptor [3]): not detectably activated | EC50 (CEGPCR16 receptor [4]; Table 10, one range for the group of peptides, read-out: EC50 range): 60 to 300 nM | ligand-induced [35S]GTPγS binding (CEGPCR16 receptor [4]; [5]): significant stimulation

NCCc1ccc(O)c(O)c1 [dopamine]
responses of the receptor to its ligand (human D2 receptor): the same regardless of the transfection protocol used
